Laboratory results: PubChem BioAssay (NCI)
Where “and” joins values, the source holds several entries; their conditions need not be identical. Identical values can stand only once.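 Tested at 5 concentrations; 48 h exposure; 96-well plates; endpoints linearly interpolated, else capped at highest concentration. At the GI50, growth is halved. The concentration for full growth arrest is given as TGI.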

What was measured:
Experiment in all cases: NCI tumour cell line growth inhibition, 48 h
[1] = tested on: HOP-92 NSCLC
[2] = tested on: HCT-15 colon
[3] = tested on: NCI/ADR-RES ovarian
[4] = tested on: RXF 393 renal
[5] = tested on: ACHN renal
[6] = tested on: NCI-H522 lung
[7] = tested on: U251 CNS
[8] = tested on: CCRF-CEM leukemia
[9] = tested on: OVCAR-4 ovarian
[10] = tested on: KM12 colon

Row | SMILES | GI50 [1] | TGI [1] | GI50 [2] | TGI [2] | GI50 [3] | TGI [3] | GI50 [4] | TGI [4] | GI50 [5] | TGI [5] | GI50 [6] | TGI [6] | GI50 [7] | TGI [7] | GI50 [8] | TGI [8] | GI50 [9] | TGI [9] | GI50 [10] | TGI [10]
1 | COc1cc(/C=C2\CC3C4CCC5=CC(=O)CC[C@]5(C)C4CC[C@]3(C)C2=O)ccc1OCCN1CCCC1 (some centres undefined) | 1.41 µM | 3.87 µM | 2.76 µM | 10.7 µM | 2.45 µM | 6.51 µM | 2.24 µM | 5.41 µM | 2.94 µM | 9.16 µM | 2.33 µM | 5.45 µM | 2.86 µM | 10.1 µM | 1.12 µM | 4.35 µM | 3.94 µM | 15.1 µM | 1.92 µM | 4.77 µM
2 | Cc1ccc2ncnc(N(C)C3CCCCC3)c2c1 | 14.6 µM | 42.7 µM | 27 µM | 88.7 µM | 19.1 µM | 53 µM | 3.84 µM | 17.9 µM | 29 µM | > 100 µM | 39 µM | > 100 µM | 59.7 µM | > 100 µM | 34.7 µM | > 100 µM | 76.5 µM | > 100 µM | 35.6 µM | > 100 µM
3 | NS(=O)(=O)c1ccc(N=Nc2c(O)[nH]c3ccc(C(=O)NCCCn4ccnc4)cc23)cc1 | > 25 µM | > 25 µM | > 25 µM | > 25 µM | > 25 µM | > 25 µM | > 25 µM | > 25 µM | > 25 µM | > 25 µM | > 25 µM | > 25 µM | > 25 µM | > 25 µM | > 18.5 µM | > 25 µM | > 25 µM | > 25 µM | > 25 µM | > 25 µM
4 | CC[C@]12C=CCN3CC[C@]4(C(=C(C(=O)OC)C1)Nc1cc5c(cc14)[C@@H]1[C@H](O5)[C@@H](O)[C@@]4(CC)CC(C(=O)OC)=C5Nc6ccccc6[C@@]56CCN1[C@@H]46)[C@@H]32 | 0.114 µM and 0.138 µM | 12.4 µM and 9.48 µM | 0.0964 µM and 0.26 µM | 3.37 µM and 1.42 µM | 0.825 µM and 0.714 µM | 25 µM and > 100 µM | 0.523 µM and 0.456 µM | 3.76 µM and 2.56 µM | 0.189 µM and 0.275 µM | 2.86 µM and 1.79 µM | 0.202 µM and 0.312 µM | 2.75 µM and 5.33 µM | 0.467 µM and 0.318 µM | – | 0.238 µM and 0.345 µM | 25 µM and > 100 µM | 0.365 µM and 0.397 µM | 13 µM and > 100 µM | 0.76 µM and 0.471 µM | 8.41 µM and 5.92 µM
5 | CC(=O)OC1C(O)C(C)OC(OC2C(OC(=O)C3CCC4C(C3)OC3(CC(OC(=O)/C=C/c5ccccc5)C(C)CO3)C43CO3)OC(C)C(O)C2OC(C)=O)C1O (centres undefined) | – | 0.0344 µM | – | 1.82 µM | – | > 2.5 µM | – | 0.121 µM | – | 0.648 µM | – | 0.0156 µM | – | 0.0493 µM | – | 0.084 µM | – | 0.051 µM | – | 0.0562 µM
6 | c1cc[n+](Cc2c3ccccc3cc3c2ccc2ccccc23)cc1 | 1.56 µM | 6.97 µM | > 100 µM | > 100 µM | > 100 µM | > 100 µM | 8.61 µM | 47.5 µM | > 100 µM | > 100 µM | 1.68 µM | 5.31 µM | 1.1 µM | 6.37 µM | 4.73 µM | 24 µM | 3.57 µM | 14.3 µM | 3.09 µM | 11.8 µM
7 | CCOC(=O)c1c(-c2ccccc2)n2c(=O)cc(C)c3c(O)c(O)cc1c32 | 10.5 µM | 42.8 µM | 1.66 µM | 19.5 µM | 2.47 µM | > 100 µM | 11.9 µM | 30.9 µM | 5.94 µM | 43.1 µM | 3.25 µM | 11.6 µM | 4.98 µM | 22.7 µM | 1.59 µM | 13.9 µM | 2.46 µM | 11.4 µM | 6.74 µM | 38.7 µM
8 | Cn1cc(-c2csc(-c3ccccc3)n2)c2cccnc21 | 1.81 µM | 15.4 µM | 12.8 µM | 31.7 µM | 19.3 µM | 49.6 µM | 14.6 µM | 33.2 µM | 17.1 µM | 52.3 µM | 14.1 µM | 33.3 µM | 13.6 µM | 28 µM | 22.8 µM | > 100 µM | 23.3 µM | 71.4 µM | 12.5 µM | 25 µM
9 | Cc1c(O)cccc1C(=O)N[C@@H](CSc1ccccc1)[C@H](O)CN1C[C@H]2CCCC[C@H]2C[C@H]1C(=O)NC(C)(C)C | 2.47 µM and 6.25 µM | 7.62 µM and 25.2 µM | 1.77 µM and 3.11 µM | 13.2 µM and 12.9 µM | 4.87 µM and 6.17 µM | 32.1 µM and 27.1 µM | 1.96 µM and 2.91 µM | 4.26 µM and 6.37 µM | 3.02 µM and 5.69 µM | 13.1 µM and 17.1 µM | 3.06 µM and 2.94 µM | 11.7 µM and 13.4 µM | 3.79 µM and 4.25 µM | 14.5 µM and 14.7 µM | 2.76 µM and 8.59 µM | 6.83 µM and > 27 µM | 5.97 µM and 5.96 µM | > 37.6 µM and 23.4 µM | 3.45 µM and 4.99 µM | 10.4 µM and 20.1 µM
10 | COc1ccccc1CNCCCN1C(=O)c2ccc3c4c(ccc(c24)C1=O)C(=O)N(CCCNCCCCNCCCN)C3=O | 0.67 µM | 5.23 µM | 1.75 µM | 5.73 µM | 2.02 µM | 7.7 µM | 0.323 µM | 1.39 µM | 0.747 µM | 4.44 µM | 0.176 µM | 0.362 µM | 0.339 µM | 1.3 µM | 0.425 µM | 19.9 µM | 0.167 µM | 0.319 µM | 0.338 µM | 1.46 µM
11 | CS(=O)(=O)N1CCC(Nc2ncc(C(=O)c3c(F)cccc3F)c(N)n2)CC1 | 1.96 µM | > 20.8 µM | 11.8 µM | > 25 µM | > 25 µM | > 25 µM | 5.32 µM | 17.9 µM | 7.06 µM | > 25 µM | > 13.1 µM | > 25 µM | 6.33 µM | > 25 µM | 9.91 µM | > 25 µM | > 13.5 µM | > 25 µM | 8.67 µM | > 25 µM
12 | Cc1ccc(C2=NN(c3ccc(S(=O)(=O)NC(=O)NCc4ccccc4)cc3)C(c3ccc(N(C)C)cc3)C2)c(C)c1 (centres undefined) | 2.64 µM | 8.58 µM | 3.27 µM | > 100 µM | 3.93 µM | 25.1 µM | 3 µM | 9.8 µM | 3.97 µM | > 100 µM | 4.48 µM | 28.7 µM | 3.53 µM | 16 µM | 3.2 µM | 89 µM | 3.54 µM | > 100 µM | 3.49 µM | 15.4 µM
13 | CCOc1cc(Cl)c(C(C)NC(=O)c2cccc(OC)c2)cc1OCC (centres undefined) | 12.1 µM | > 85.6 µM | 4.06 µM | > 100 µM | 4.18 µM | > 100 µM | 9.21 µM | 63 µM | 20.1 µM | > 100 µM | 5.04 µM | 39.7 µM | 8.18 µM | > 100 µM | 11.7 µM | > 100 µM | 17.9 µM | 99.4 µM | 7.19 µM | > 100 µM
14 | CSC1=CC(=O)c2ccccc2C1=O | 0.811 µM | 2.19 µM | 11.6 µM | 26.1 µM | 2.81 µM | 11.7 µM | 1.54 µM | 2.9 µM | 1.66 µM | 3.07 µM | 2.02 µM | 4.16 µM | 11 µM | 23.8 µM | 0.296 µM | 1.44 µM | 1.36 µM | 2.67 µM | 6.75 µM | 22.5 µM
15 | CC(C)c1cnc(-c2cc(Cl)ccc2F)cc1Nc1ccncc1C(=O)NC(CO)CO | 1.33 µM | 35.4 µM | 12.9 µM | 26.9 µM | 20.8 µM | 63.2 µM | 10.3 µM | 27 µM | 11.1 µM | 29 µM | 13 µM | 30.4 µM | 14.9 µM | 33.9 µM | 11.6 µM | 54.2 µM | 13.7 µM | 66.3 µM | 17.7 µM | 37.4 µM
16 | O=C(O)c1ccc(CSc2nc3ccccc3[nH]2)cc1 | > 100 µM | > 100 µM | > 100 µM | > 100 µM | > 100 µM | > 100 µM | > 100 µM | > 100 µM | > 100 µM | > 100 µM | > 100 µM | > 100 µM | > 100 µM | > 100 µM | > 100 µM | > 100 µM | > 100 µM | > 100 µM | > 100 µM | > 100 µM
17 | CCOC(=O)C#Cc1cccc(C#CC(=O)OCC)c1 | – | 11.8 µM | – | 16.1 µM | – | 14.6 µM | – | 10.9 µM | – | 11.6 µM | – | 30.9 µM | – | 9.87 µM | – | 6.34 µM | – | 7.59 µM | – | 15.2 µM
18 | Nc1nc2ccc(CNc3ccc(C(=O)NC(CC(=O)O)C(=O)O)cc3)cc2c(=O)[nH]1 (centres undefined) | > 51 µM | > 100 µM | 0.757 µM | > 100 µM | 2.71 µM | > 100 µM | > 34.7 µM | > 100 µM | 3.6 µM | > 100 µM | 14.4 µM | > 100 µM | 7.49 µM | > 100 µM | 4.86 µM | > 100 µM | > 100 µM | > 100 µM | 4.3 µM | > 100 µM
